Measurements as given in patent US20200325178A1, “PEPTIDE NUCLEIC ACID MOLECULES FOR TREATMENT OF GRAM POSITIVE BACTERIAL INFECTION” (priority 2017, published 2020).

Assays:
MSSA = assay: In vitro assay of emergence of resistance, MSSA, 8 days; format: cell-based, S. aureus; conditions: 6.25 μg (twice MBC) in one ml Mueller Hinton broth, 37° C., through Day 8
Procedure: To determine the development of resistance in MRSA and MSSA strains against Compound I-HCl and Compound IV-HCl, an in vitro assay was performed. Twice the amount of MBC of Compound I-HCl (6.25 μg) and Compound IV-HCl (6.25 μg) were mixed with ˜5.0 log 10 CFUs in one ml of Mueller Hinton broth and incubated for 8 days at 37° C. Eight tubes of culture were used for each drug and bacterial strains. At 24 hours of interval, culture tubes were centrifuged and spent media were replaced with fresh media in presence of Compound I-HCl and Compound IV-HCl and further incubated to observe the growth of S. aureus strains. At 24 hours interval, one set of culture tube exposed to drugs were selected and a fraction of the culture used to plate on agar plates to observe the reduction of CFU counts as compared to untreated control. The rest of the culture samples were allowed to grow without any drug for additional 24 hours to observe the growth of S. aureus strains. One set of culture tubes without drug was used as the positive control.
The assays above were also performed using MSSA strains and Compounds I and IV.

[1] = tested on: S. aureus (ATCC BAA-1556); assay: Murine thigh infection model; format: in vivo; conditions: for Mean Log 10 CFU/Thigh / Mean Log 10 Change vs. 1 hr / Mean Log 10 Change vs. 24 hr (vehicle): neutropenic CD-1 mice, 10 mg/kg, 0.2 ml IV, 24 hrs
Procedure: Female 5-6 week old CD-1 (18-22 gm) were used in this study. Mice were quarantined for 48 hours before use and housed in groups of 5 with free access to food and water during the study.
The animals were made neutropenic by administration of cyclophosphamide on Days −4 and −1. On Days −4 150 mg/kg of cyclohsphamide administered by intraperitoneal route and 100 mg/kg was administered on Days −1. Days listed are referenced from the date of infection (study day-Day 0).
On Day 0, animals were inoculated intramuscularly (0.1 ml/thigh) with ˜1×10^5 CFU/mouse of S. aureus (ATCC BAA-1556) into right thigh. […] Group-3 of mice were administered with vancomycin at 25 mg/kg via subcutaneous route. Group-4 of mice administered with buffer and group-5 used as the inoculation control.
Mice were euthanized by CO2 inhalation and thighs were removed, and placed in 2 ml of sterile PBS, homogenized, serially diluted and plated to determine the CFU counts. Plates were incubated 18-24 hours and CFUs were counted.
Colony were counted and the number of colonies is converted to CFU/thigh by multiplying the number of colonies by the volume of the thigh homogenate spotted and the dilution at which the colonies were counted (5-50 colonies/spot). All count data were transformed into logo CFU/thigh for calculation of means and standard deviations.

[2] = tested on: MSSA clinical isolates and ATCC strains; assay: MIC and MBC against MSSA clinical isolates and ATCC strains; format: cell-based, Staphylococcus aureus; parameters: MIC: unit not given here
Procedure: (§1) Bioscreen-C instrument was used to detect the MIC and MBC of PNA-CPP derivatives against S. aureus MSSA strains. Different concentrations of PNA-CPP derivatives were prepared in 10 mM of sodium bicarbonate buffer pH-7.4 and added to ˜5.0 Log 10 CFUs in a Honey comb Bioscreen-C plate.
After the growth curve assays, the number of colony forming units (CFU) were counted to determine the MIC and MBC of each PNA-CPP derivative against MSSA.
Minimum inhibitory concentration (MIC) analyses were performed as described in Clinical and Laboratory Standards Institute, Methods for Dilution Antimicrobial Susceptibility Tests for Bacteria that Grow Aerobically, 7th ed.; Approved Standard M7-A7; CLSI: Wayne, Pa., USA, 2006; volume 26, No. 2. Vancomycin and Oxacillin were used as controls. MIC was determined as the lowest concentration of agent that inhibits bacterial growth detected at A420-580 nm.

S. aureus MSSA strains = assay: Bioscreen-C dose response growth curve of MSSA over 24 hours; format: cell-based, Staphylococcus aureus; conditions: HCl salts, doses from 100 μg downwards, 10 mM sodium bicarbonate buffer pH-7.4, OD 420-580 nm
Procedure: as §1
Compound I-V were assayed against MSSA. FIG. 12-16 show a dose response growth curve of MSSA in presence of increasing concentrations of Compound I-HCl (FIG. 12), Compound II-HCl (FIG. 13), Compound III-HCl (FIG. 14), Compound IV-HCl (FIG. 15), and Compound V-HCl (FIG. 16), determined in a Bioscreen-C spectrophotometer.

[3] = Single ascending intravenous dose tolerability (MTD) in mice; format: in vivo; conditions: 10 mg/kg single intravenous bolus dose
Procedure: Single ascending intravenous (IV) dose study was performed to determine tolerability of the drug in mice.
Initially, Compound I-HCl and Compound IV-HCl were administered with a 10 mg/kg intravenous bolus dose using a 10 mL/kg dose volume (0.2 mL) and observed the effects before proceeding to the next higher dose. […] However, higher concentration (>15 mg/kg) had shown adverse effect and death in mice within 30 mins of administration of the drug.

[4] = MSSA table, isolate MRSA#16 [sic]
[5] = MSSA table, isolate MRSA#25 [sic]
[6] = MSSA table, isolate MRSA#27 [sic]
[7] = MSSA table, isolate MRSA#34 [sic]
[8] = MSSA table, isolate MRSA#38 [sic]
[9] = MSSA table, isolate MRSA#57 [sic]
[10] = MSSA table, isolate MRSA#60 [sic]
[11] = MSSA table, isolate printed MRSA#49
[12] = MSSA table, isolate printed MRSA#61

For “Compound I: PNA-CPP conjugate: PNA cgt cat acg cgg tcc (SEQ ID NO: 51), AEEA linker, CPP BXRXRRXRRXRRXR; FIG. 1 (CGTCATACGCGGTCC; all peptide nucleic acid (PNA); cell-penetrating peptide attached via AEEA linker, further chemistry not fully specified)”, the “MSSA CFU counts and emergence of resistant strains” value (MSSA) was “reduced MSSA CFUs without emergence of resistant strains”, the “reduction in CFU counts compared to Vancomycin positive control treatment” value ([1]; administered at 1 and 13 hours or at 1, 9, and 17 hours) was “comparable or improved reduction in CFU counts” and the “Mean Log 10 CFU/Thigh” value ([1]; +1 & 13 hrs) was 4.46 Log 10 CFU/Thigh. The “Mean Log 10 Change vs. 1 hr” value ([1]; +1 & 13 hrs) was −1.16 Log 10, the “Mean Log 10 Change vs. 24 hr (vehicle)” value ([1]; +1 & 13 hrs) was −4.07 Log 10 and the “Mean Log 10 CFU/Thigh” value ([1]; +1, +9, & +17 hrs) was 3.46 Log 10 CFU/Thigh. The “Mean Log 10 Change vs. 1 hr” value ([1]; +1, +9, & +17 hrs) was −2.16 Log 10, the “Mean Log 10 Change vs. 24 hr (vehicle)” value ([1]; +1, +9, & +17 hrs) was −5.07 Log 10 and the MBC [2, 4] was 1.56/1.56 ∞g. For the same substance, the MIC [2, 4] was 1.56/1.56 ∞g, the MBC [2, 5] was 3.25 ∞g and the MIC [2, 5] was 1.56 ∞g. The MBC [2, 6] was 1.56 ∞g, the MIC [2, 6] was 0.78 ∞g and the MBC [2, 7] was 3.25/3.25 ∞g. For the same substance, the MIC [2, 7] was 3.25/3.25 ∞g, the MBC [2, 8] was 1.56/1.56 ∞g and the MIC [2, 8] was 1.56/1.56 ∞g. The MBC ([2]; MSSA table, isolate MRSA#55) was 3.25 ∞g, the MIC ([2]; MSSA table, isolate MRSA#55) was 1.56 ∞g and the MBC [2, 9] was 3.25 ∞g. The MIC [2, 9] was 1.56 ∞g, the MBC [2, 10] was 1.56 ∞g and the MIC [2, 10] was 0.78 ∞g. For the same substance, the MBC [2, 11] was 3.25 ∞g, the MIC [2, 11] was 1.56 ∞g and the MBC [2, 12] was 3.25/3.25 ∞g. The MIC [2, 12] was 3.25/3.25 ∞g, the MBC ([2]; strain BAA 1721) was 3.25 ∞g and the MIC ([2]; strain BAA 1721) was 1.56 ∞g. For the same substance, the “lowest dose at which no MSSA growth was observed (growth curve)” value (S. aureus MSSA strains) was 3.13 µg and the tolerability in mice [3] was “well tolerated”.
